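Grown in 96-well plates, cells were treated for 48 hours with each compound at five concentrations. Insufficient inhibition: endpoint recorded as highest concentration tested. GI50: concentration for 50% inhibition of growth.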 Activity calls are given as the source filed them. Rule as the data show it: active = GI50 up to about 1.1 µM and inactive = higher.
Legend:
Test in all cases: NCI anticancer screen, dose series, 48 h
HL-60 = system: HL-60
RPMI-8226 = system: RPMI-8226
SNB-19 = system: SNB-19
LOX IMVI = system: LOX IMVI
KM12 = system: KM12
OVCAR-4 = system: OVCAR-4
UO-31 = system: UO-31
MOLT-4 = system: MOLT-4
NCI-H226 = system: NCI-H226
CCRF-CEM = system: CCRF-CEM
NCI-H460 = system: NCI-H460
HOP-92 = system: HOP-92
TK-10 = system: TK-10
SN12C = system: SN12C
COLO 205 = system: COLO 205
DLD-1 = system: DLD-1
A549 = system: A549
OVCAR-3 = system: OVCAR-3
RXF 631 = system: RXF 631
SF-539 = system: SF-539
M19-MEL = system: M19-MEL
OVCAR-8 = system: OVCAR-8
NCI-H23 = system: NCI-H23
SK-MEL-5 = system: SK-MEL-5
U-251 = system: U-251
EKVX = system: EKVX
CAKI-1 = system: CAKI-1
HOP-18 = system: HOP-18
HCT-116 = system: HCT-116
OVCAR-5 = system: OVCAR-5
K562 = system: K562
LXFL 529 = system: LXFL 529
UACC-62 = system: UACC-62
XF498 = system: XF498
HCC 2998 = system: HCC 2998
HOP-62 = system: HOP-62
SK-MEL-2 = system: SK-MEL-2
Malme-3M = system: Malme-3M
SNB-78 = system: SNB-78
SF-295 = system: SF-295
M14 = system: M14
DMS-273 = system: DMS-273
SNB-75 = system: SNB-75
SW-620 = system: SW-620
IGROV-1 = system: IGROV-1
SF-268 = system: SF-268
KM-20L2 = system: KM-20L2
786-0 = system: 786-0
SK-MEL-28 = system: SK-MEL-28
A498 = system: A498
DMS-114 = system: DMS-114
SK-OV-3 = system: SK-OV-3
NCI-H522 = system: NCI-H522
UACC-257 = system: UACC-257
RXF 393 = system: RXF 393
HT-29 = system: HT-29
SR = system: SR
ACHN = system: ACHN
HCT-15 = system: HCT-15

## CCc1ccccc1NC(=O)CC1NC(=O)CS1 (stereo not drawn)
HL-60
  GI50: > 100 µM (inactive)
RPMI-8226
  GI50: > 100 µM (inactive)
SNB-19
  GI50: > 100 µM (inactive)
LOX IMVI
  GI50: > 100 µM (inactive)
KM12
  GI50: > 100 µM (inactive)
OVCAR-4
  GI50: > 100 µM (inactive)
UO-31
  GI50: > 100 µM (inactive)
MOLT-4
  GI50: > 100 µM (inactive)
NCI-H226
  GI50: > 100 µM (inactive)
CCRF-CEM
  GI50: > 100 µM (inactive)
NCI-H460
  GI50: > 100 µM (inactive)
HOP-92
  GI50: > 100 µM (inactive)
TK-10
  GI50: > 100 µM (inactive)
SN12C
  GI50: > 100 µM (inactive)
COLO 205
  GI50: > 100 µM (inactive)
DLD-1
  GI50: > 100 µM (inactive)
A549
  GI50: > 100 µM (inactive)
OVCAR-3
  GI50: > 100 µM (inactive)
RXF 631
  GI50: > 100 µM (inactive)
SF-539
  GI50: > 100 µM (inactive)
M19-MEL
  GI50: > 100 µM (inactive)
OVCAR-8
  GI50: > 100 µM (inactive)
NCI-H23
  GI50: > 100 µM (inactive)
SK-MEL-5
  GI50: > 100 µM (inactive)
U-251
  GI50: > 100 µM (inactive)
EKVX
  GI50: > 100 µM (inactive)
CAKI-1
  GI50: > 100 µM (inactive)
HOP-18
  GI50: > 100 µM (inactive)
HCT-116
  GI50: > 100 µM (inactive)
OVCAR-5
  GI50: > 100 µM (inactive)
K562
  GI50: > 100 µM (inactive)
LXFL 529
  GI50: > 100 µM (inactive)
UACC-62
  GI50: > 100 µM (inactive)
XF498
  GI50: > 100 µM (inactive)
HCC 2998
  GI50: > 100 µM (inactive)
HOP-62
  GI50: > 100 µM (inactive)
SK-MEL-2
  GI50: > 100 µM (inactive)
Malme-3M
  GI50: 55.2 µM (inactive)
SNB-78
  GI50: > 100 µM (inactive)
SF-295
  GI50: > 100 µM (inactive)
M14
  GI50: > 100 µM (inactive)
DMS-273
  GI50: > 100 µM (inactive)
SNB-75
  GI50: 37.5 µM (inactive)
SW-620
  GI50: > 100 µM (inactive)
IGROV-1
  GI50: > 100 µM (inactive)
SF-268
  GI50: > 100 µM (inactive)
KM-20L2
  GI50: > 100 µM (inactive)
786-0
  GI50: > 100 µM (inactive)
SK-MEL-28
  GI50: > 100 µM (inactive)
A498
  GI50: > 100 µM (inactive)
DMS-114
  GI50: > 100 µM (inactive)
SK-OV-3
  GI50: > 100 µM (inactive)
NCI-H522
  GI50: > 100 µM (inactive)
UACC-257
  GI50: > 100 µM (inactive)
RXF 393
  GI50: > 100 µM (inactive)

## COc1cc2c(cc1O)C1C(O)C(O)C=C3CCN(C2)C31 (stereo not drawn)
HT-29
  GI50: 3.17 µM (inactive)
HL-60
  GI50: 2.66 µM (inactive)
RPMI-8226
  GI50: 3.58 µM (inactive)
SNB-19
  GI50: 1.39 µM (inactive)
LOX IMVI
  GI50: 0.76 µM (active)
SR
  GI50: 2.08 µM (inactive)
KM12
  GI50: 2.05 µM (inactive)
OVCAR-4
  GI50: 1.38 µM (inactive)
UO-31
  GI50: 2.77 µM (inactive)
MOLT-4
  GI50: 3.15 µM (inactive)
ACHN
  GI50: 1.85 µM (inactive)
NCI-H226
  GI50: 2.55 µM (inactive)
CCRF-CEM
  GI50: 3.65 µM (inactive)
NCI-H460
  GI50: 1.83 µM (inactive)
HOP-92
  GI50: 1.16 µM (inactive)
TK-10
  GI50: 2.65 µM (inactive)
SN12C
  GI50: 2.84 µM (inactive)
COLO 205
  GI50: 1.44 µM (inactive)
DLD-1
  GI50: 2.47 µM (inactive)
A549
  GI50: 2.11 µM (inactive)
OVCAR-3
  GI50: 2.67 µM (inactive)
RXF 631
  GI50: 2.97 µM (inactive)
SF-539
  GI50: 2.09 µM (inactive)
M19-MEL
  GI50: 2.72 µM (inactive)
OVCAR-8
  GI50: 2.05 µM (inactive)
NCI-H23
  GI50: 2.13 µM (inactive)
SK-MEL-5
  GI50: 1.46 µM (inactive)
U-251
  GI50: 2.98 µM (inactive)
EKVX
  GI50: 3.84 µM (inactive)
CAKI-1
  GI50: 1.9 µM (inactive)
HOP-18
  GI50: 2.43 µM (inactive)
HCT-116
  GI50: 0.158 µM (active)
OVCAR-5
  GI50: 4.39 µM (inactive)
K562
  GI50: 2.51 µM (inactive)
LXFL 529
  GI50: 3.18 µM (inactive)
UACC-62
  GI50: 1.69 µM (inactive)
XF498
  GI50: 1.36 µM (inactive)
HCC 2998
  GI50: 2.4 µM (inactive)
HOP-62
  GI50: 2.92 µM (inactive)
SK-MEL-2
  GI50: 1.83 µM (inactive)
Malme-3M
  GI50: 0.587 µM (active)
SNB-78
  GI50: 0.565 µM (active)
SF-295
  GI50: 2.31 µM (inactive)
M14
  GI50: 1.79 µM (inactive)
DMS-273
  GI50: 1.95 µM (inactive)
SNB-75
  GI50: 2.65 µM (inactive)
SW-620
  GI50: 2.49 µM (inactive)
IGROV-1
  GI50: 2.74 µM (inactive)
SF-268
  GI50: 2.2 µM (inactive)
KM-20L2
  GI50: 2.34 µM (inactive)
786-0
  GI50: 2.39 µM (inactive)
SK-MEL-28
  GI50: 2.76 µM (inactive)
HCT-15
  GI50: 3.61 µM
DMS-114
  GI50: 1.09 µM (active)
SK-OV-3
  GI50: 4.11 µM (inactive)
NCI-H522
  GI50: 1.8 µM (inactive)
UACC-257
  GI50: 2.67 µM (inactive)
RXF 393
  GI50: 1.45 µM (inactive)

From ChEMBL document CHEMBL1201862, “PubChem BioAssay data set” (2004)
